Where two headings read alike, the source gives them in different places.
Columns and labels:
[1] = tested on: cultured hippocampal neurons; assay: Synaptic loss and process degeneration in cultured hippocampal neurons (dominant-negative Nmnat1); format: cell-based; settings: 50-200 μM, up to 72 hr
Text: We next attempted to examine whether decreasing NAD levels can induce similar “dying-back” axon degeneration in neurons with established synaptic connections. Such experiments might allow us to assess whether the degenerative processes in axons and other neuronal structures, including synaptic structures and dendritic processes, share similar mechanisms. To do this, we introduced both wild type and dominant negative Nmnat1 into cultured hippocampal neurons at 20 days in vitro (DIV 20), when their synaptic connections have formed and matured (Brewer et al. 1993), and examined their effects on axons as well as dendrites and synapses. As a conventional approach to visualize these neuronal structures, we also co-infected the hippocampal neurons with HSV expressing YFP. […] Moreover, neuronal NAD levels declined from 24-48 hr post-infection with viruses expressing dominant-negative Nmnat1 but not wild type Nmnat1 or YFP. Thus, we decided to focus our analysis on the first 60 hours post-infection.
To monitor changes in synaptic structures, we co-infected DIV20 neurons with HSV expressing YFP and wild type or the mutant Nmnat1, and quantified both spine density and the length and branching of axons and dendrites. As the density of dendritic spines has been considered a reliable indicator for synapse number (reviewed by Hering and Sheng, 2001), we performed high-resolution YFP imaging in neurons co-expressing YFP and Nmnat1 proteins at the indicated time points post-infection to measure the spine densities in these co-infected neurons. Dendrite length and branching patterns were analyzed using Sholl's method of regularly spaced concentric circles centered on the neuronal soma (Sholl, 1953). […]
In the experiments described above, we also performed immunostaining with antibodies against the presynaptic marker bassoon, and found a decrease of positively-stained synaptic structures. However, due to the complex morphology of the axons that makes it extremely difficult to quantify the axonal length in DIV20 hippocampal neurons, we […]. […]

[2] = tested on: EAE mice (wild type or Wlds); assay: Mouse EAE model, subcutaneous nicotinamide (Example 9 end, Example 12); format: in vivo; settings: for reduction of neural degeneration in EAE mice: daily from day of MOG immunization
Procedure: In initial experiments, we administered nicotinamide daily starting from the day of immunization by MOG peptide, and found efficacy in both 125 mg/kg and 500 mg/kg treatment groups. We have also examined groups of mice wherein initiation of nicotinamide administration was delayed until 10 days after the immunization by MOG peptide (delayed treatment group), to better model clinical conditions wherein patients typically begin treatment after onset of pathogenic autoimmunity.
In this example we administered NAm by daily subcutaneous injection at two different dosages (125 or 500 mg/kg, dissolved by PBS) starting from the day of MOG immunization. As a control, we administered the same volume of PBS into either wild type or Wld^s mice. The EAE models were induced following essentially the procedure described in Kalyvas et al (2004, Neuron 41, 323-335). Other protocols were adapted from Wang, et al. (2005) J. Cell. Biol. 170: 349-355.
We started treatments with NAm (500 mg/kg, daily subcutaneous injection) from 10 days P.I. when most of the animals already have clear clinical symptoms.

[3] = tested on: SOD1-G93A transgenic mice; format: in vivo; settings: for reduction of neural degeneration in ALS mice, behavioral testing: subcutaneous, daily from 10 weeks from birth
[4] = 500 mg/kg daily s.c. from 10 days P.I.
[5] = SOD1-G93A, nicotinamide diet from 7 wk of age

Structure (SMILES): NC(=O)c1cccnc1 [nicotinamide, 3-pyridinecarboxamide]
- dendritic spine quantity or structure, compound alone [1]: did not induce significant changes
- NAD levels, delayed treatment [2, 4]: increased NAD levels effectively
- further development of EAE symptoms, delayed treatment [2, 4]: efficiently attenuated further development of EAE symptoms
- number of degenerating axons, delayed treatment ([2]; 500 mg/kg daily s.c. from 10 days P.I., 8 weeks P.I.): significantly reduced the number of degenerating axons
- degenerating axons detected compared with untreated animals ([2]; Wlds mice, high dose): ~5%
- effect on EAE symptoms ([2]; Wlds mice, high dose 500 mg/kg): More dramatic improvements
- NAD levels at 2 and 4 weeks P.I. ([2]; Wlds mice, high dose (500 mg/kg) s.c.): remained at high levels
- axons remaining morphologically intact (Toluidine Blue) ([2]; Wlds mice, high dose, 8 weeks P.I.): ~90%
- NAD levels at 2 weeks P.I. ([2]; daily s.c. 125 or 500 mg/kg from day of MOG immunization): dramatically increased NAD levels in a dose-dependent manner
- reduction of neural degeneration in EAE mice ([2]; subcutaneous, 125 mg/kg): efficacy
- reduction of neural degeneration in EAE mice ([2]; subcutaneous, 500 mg/kg): efficacy
- neural degeneration versus matched controls, delayed treatment group ([2]; subcutaneous, started 10 days after MOG immunization): reduced neural degeneration
- axons in peripheral regions of the spinal cord ([2]; wild type EAE mice, high dose): increased numbers of demyelinated but preserved axons
- numbers of SMI-32-positive axons ([2]; wild type and Wlds mice, 2, 4 and 8 weeks P.I.): significantly reduced numbers
- onset and development of EAE symptoms ([2]; wild type mice, 125 or 500 mg/kg s.c. daily): ameliorated the onset and development of EAE symptoms in a dose-dependent manner
- NAD levels at 4 weeks P.I. ([2]; wild type mice, continuous daily s.c. administration): returned to near-normal levels
- degenerating axons detected compared with untreated animals ([2]; wild type mice, high dose): approximately 10%
- effect on EAE onset and severity ([2]; wild type mice, high dose 500 mg/kg): significant improvement
- axons remaining morphologically intact (Toluidine Blue) ([2]; wild type mice, high dose, 8 weeks P.I. (control wild type EAE 25%)): approximately 70%
- age at bilateral hindlimb paralysis ([3]; SOD1-G93A, both normal diet and nicotinamide diet): 127-157 days of age
- age through to which walking capacity is improved (grid walking test) ([3]; SOD1-G93A, nicotinamide diet): 124 days of age
- age through to which motor functions are preserved (Rotarod) ([3]; SOD1-G93A, nicotinamide diet (control diet onset 108 days)): 120 days of age
- onset of impairment in balance, coordination and muscle strength (Rotarod) [3, 5]: significantly delays the onset of impairment
- walking capacity (grid walking test) [3, 5]: significantly improves walking capacity
- Rotarod performance score (latency) ([3]; mouse, in vivo): 180 s
- body condition scoring (BCS) ([3]; mouse, in vivo): 3
- foot miss scores (grid walking test) ([3]; mouse, in vivo): 0
- general health and neurologic status (lacrimation/salivation, eye blink, ear twitch, pupillary response, whisker orienting reflex) ([3]; mouse, in vivo): no obvious differences
- reduction of neural degeneration in ALS mice, behavioral testing ([3]; 125 mg/kg): efficacy
- reduction of neural degeneration in ALS mice, behavioral testing ([3]; 500 mg/kg): efficacy
